# Test results from patent publication US9301961B2, “Autoimmune and inflammatory disorder therapy” (Katholieke Universiteit Leuven, K.U. Leuven R&D, priority 2011, dated 2016).
# Where two headings read alike, the source gives them in different places.
# Experiments:
# [1] = test system: Peripheral blood mononuclear cells (PBMCs) mixed with mitomycin C treated RPMI1788 cells; assay: Mixed lymphocyte reaction (MLR) assay, 3H-thymidine uptake
# Text: In the MLR assay PBMCs from two individuals are mixed together in tissue culture for several days. […] In the one-way MLR test, the mononuclear cells from one of the individuals are inactivated (usually by treatment with mitomycin C or irradiation), thereby allowing only the untreated remaining population of mononuclear cells, such as lymphocytes, to proliferate in response to foreign histocompatibility antigens.
# The immunosuppressive effect of test compounds was also investigated using MLR assays. Peripheral blood mononuclear cells (PBMCs) were isolated from heparinized blood of healthy donors by density-gradient centrifugation over Lymphoprep. […] RPMI1788 cells were treated with 30 μg/mL mitomycin C for 20 min at 37° C., washed four times with medium, and finally suspended in complete RPMI medium to a density of 0.45×10^6 cells/mL. An amount of 100 μL of each cell suspension was mixed with 20 μL of diluted compound. The mixed cells were cultured at 37° C. for 6 days in 5% CO2. […] Thereafter, the cells were harvested on glass filter paper and the counts per minute (cpm) determined in a liquid scintillation counter.
# [2] = biological target: T1, PI3KCB (PI3K p110β/p85α (h)) (Homo sapiens, UniProt P42338); assay: Commercial kinase activity assay (Millipore, HTRF); type: biochemical; details: 10 μM test compound
# T1 construct: purchased Millipore
# Method: LOK (h) was incubated with 8 mM MOPS pH 7.0, 0.2 mM EDTA, 250 μM […], 10 mM MgAcetate and [γ-^33P-ATP] (specific activity approx. 500 cpm/pmol, concentration as required). The reaction was initiated by the addition of the MgATP mix. After incubation for 40 minutes at room temperature, the reaction was stopped by the addition of 3% phosphoric acid solution. 10 μL of the reaction was then spotted onto a P30 filtermat and washed three times for 5 minutes in 75 mM phosphoric acid and once in methanol prior to drying and scintillation counting. PI3K p110β/p85α (h) PI3K (p110β/p85α) (h) was incubated in assay buffer containing 10 μM phosphatidylinositol-4,5-bisphosphate and MgATP (concentration as required). The reaction was initiated by the addition of the MgATP mix. After incubation for 30 minutes at room temperature, the reaction was stopped by the addition of stop solution containing EDTA and biotinylated phosphatidylinositol-3,4,5-trisphosphate. Finally, detection buffer was added, which contains europium-labelled anti-GST monoclonal antibody, GST-tagged GRP1 PH domain and streptavidinallophycocyanin. The plate was then read in time-resolved fluorescence mode and the homogenous time-resolved fluorescence (HTRF®) signal determined according to the formula HTRF=10000×(Em665nm/Em620 nm). […]
# LOK (h) = biological target: T2, LOK (h) (Homo sapiens, UniProt O94804); assay: Commercial kinase activity assay (Millipore, 33P-ATP filter); type: biochemical; details: 10 μM test compound
# T2 construct: purchased Millipore
# Method: (§1) LOK (h) was incubated with 8 mM MOPS pH 7.0, 0.2 mM EDTA, 250 μM […], 10 mM MgAcetate and [γ-^33P-ATP] (specific activity approx. 500 cpm/pmol, concentration as required). The reaction was initiated by the addition of the MgATP mix. After incubation for 40 minutes at room temperature, the reaction was stopped by the addition of 3% phosphoric acid solution. 10 μL of the reaction was then spotted onto a P30 filtermat and washed three times for 5 minutes in 75 mM phosphoric acid and once in methanol prior to drying and scintillation counting. PI3K p110β/p85α (h) PI3K (p110β/p85α) (h) was incubated in assay buffer containing 10 μM phosphatidylinositol-4,5-bisphosphate and MgATP (concentration as required). The reaction was initiated by the addition of the MgATP mix. After incubation for 30 minutes at room temperature, the reaction was stopped by the addition of stop solution containing EDTA and biotinylated phosphatidylinositol-3,4,5-trisphosphate. Finally, detection buffer was added, which contains europium-labelled anti-GST monoclonal antibody, GST-tagged GRP1 PH domain and streptavidinallophycocyanin. The plate was then read in time-resolved fluorescence mode and the homogenous time-resolved fluorescence (HTRF®) signal determined according to the formula HTRF=10000×(Em665nm/Em620 nm). YSK4 (h) YSK4 (h) was incubated with 8 mM MOPS pH 7.0, 0.2 mM EDTA, 250 […], 10 mM MgAcetate and [γ-^33P-ATP] (specific activity approx. 500 cpm/pmol, concentration as required). The reaction was initiated by the addition of the MgATP mix. After incubation for 40 minutes at room temperature, the reaction was stopped by the addition of 3% phosphoric acid solution. 10 μL of the reaction was then spotted onto a P30 filtermat and washed three times for 5 minutes in 75 mM phosphoric acid and once in methanol prior to drying and scintillation counting. PI4KA (PI4K alpha) The 2× PI4KA (PI4K alpha)/PI Lipid Kinase Substrate mixture was prepared in 20 mM Tris, pH 7.5, 0.4% Triton X-100, 5 mM MgCl2, 0.5 mM EGTA. The final 10 μL Kinase Reaction consisted of 75-300 ng PI4KA (PI4K alpha) and 100 μM PI Lipid Kinase Substrate in 7.5 mM HEPES, 10 mM Tris, pH 7.5, 0.2% Triton X-100, 2.5 mM MgCl2, 0.25 mM EGTA. After the 1 hour Kinase Reaction incubation, 5 μL of Detection Mix consisting of a europium labeled anti-ADP antibody, an Alexa Fluor® 647 labeled ADP tracer, and EDTA (to stop the kinase reaction) was added to the assay well. ADP formed by the kinase reaction (in the absence of an inhibitor) displaced the Alexa Fluor® 647 labeled ADP tracer from the antibody, resulting in a decrease in the TR-FRET signal. […] PI4KB (PI4K beta) The 2× PI4KB (PI4K beta)/PI Lipid Kinase Substrate mixture was prepared in 50 mM HEPES pH 7.5, 0.1% CHAPS, 1 mM EGTA, 4 mM MgCl2. […]
# YSK4 (h) = biological target: T3, YSK4 (h) (Homo sapiens, UniProt Q56UN5); assay: as above; type: biochemical; details: 10 μM test compound
# T3 construct: purchased Millipore
# T3 sequence (Q56UN5 1-1328): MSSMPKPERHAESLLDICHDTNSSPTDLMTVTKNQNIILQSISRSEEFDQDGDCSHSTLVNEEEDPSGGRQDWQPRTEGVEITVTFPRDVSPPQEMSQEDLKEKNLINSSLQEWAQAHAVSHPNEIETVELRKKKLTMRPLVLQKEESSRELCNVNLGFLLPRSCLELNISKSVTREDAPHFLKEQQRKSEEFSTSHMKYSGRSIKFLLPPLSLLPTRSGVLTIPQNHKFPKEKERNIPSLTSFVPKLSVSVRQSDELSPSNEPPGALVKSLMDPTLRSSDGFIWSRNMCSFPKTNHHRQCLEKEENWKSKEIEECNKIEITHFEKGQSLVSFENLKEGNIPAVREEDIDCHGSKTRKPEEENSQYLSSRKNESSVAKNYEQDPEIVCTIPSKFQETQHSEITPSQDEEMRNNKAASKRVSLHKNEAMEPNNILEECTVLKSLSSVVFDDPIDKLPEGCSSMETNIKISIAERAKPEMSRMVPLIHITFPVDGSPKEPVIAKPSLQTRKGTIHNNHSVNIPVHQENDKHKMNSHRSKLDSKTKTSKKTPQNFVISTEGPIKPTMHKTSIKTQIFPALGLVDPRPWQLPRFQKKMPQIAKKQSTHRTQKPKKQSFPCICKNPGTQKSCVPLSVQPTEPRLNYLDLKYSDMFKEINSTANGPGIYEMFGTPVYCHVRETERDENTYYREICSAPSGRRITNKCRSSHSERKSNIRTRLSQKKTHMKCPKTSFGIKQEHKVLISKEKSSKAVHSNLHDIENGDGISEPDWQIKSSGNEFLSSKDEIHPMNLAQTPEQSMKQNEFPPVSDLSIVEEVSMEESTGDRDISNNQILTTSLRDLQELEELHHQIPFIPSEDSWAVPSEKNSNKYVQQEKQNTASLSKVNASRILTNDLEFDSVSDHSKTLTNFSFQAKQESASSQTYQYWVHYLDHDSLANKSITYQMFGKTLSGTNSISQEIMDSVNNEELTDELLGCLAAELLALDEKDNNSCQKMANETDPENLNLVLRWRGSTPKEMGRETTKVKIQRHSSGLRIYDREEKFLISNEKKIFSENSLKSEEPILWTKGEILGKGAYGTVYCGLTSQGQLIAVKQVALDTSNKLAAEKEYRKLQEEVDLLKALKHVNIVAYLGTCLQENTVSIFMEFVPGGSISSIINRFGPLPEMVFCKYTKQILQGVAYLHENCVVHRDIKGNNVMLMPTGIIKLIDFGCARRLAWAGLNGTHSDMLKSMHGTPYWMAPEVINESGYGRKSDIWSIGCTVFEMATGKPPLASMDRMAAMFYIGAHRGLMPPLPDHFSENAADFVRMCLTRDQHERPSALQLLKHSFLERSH
# Method: as §1
# PAK1 = biological target: T4, PAK1 (Homo sapiens, UniProt Q13153); assay: Commercial kinase activity assay (Invitrogen, fluorescence); type: biochemical; details: 10 μM test compound
# T4 construct: made in house; host or cells: E. coli BL21-derived host (T7 phage) or HEK-293
# PI4KA (PI4K alpha) = biological target: T5, PI4KA (PI4K alpha) (Homo sapiens, UniProt P42356); assay: Commercial kinase activity assay (Invitrogen, ADP TR-FRET); type: biochemical; details: 10 μM test compound
# T5 construct: purchased Invitrogen
# [3] = biological target: PI4KIIIβ (PI4KB, PI4K beta) (Homo sapiens, UniProt Q9UBF8); assay: as above; details: for inhibition at 10 µM: read-out: % inhibition of PI4KIIIβ @ 10 μM
# Method: PI4KB (PI4K beta) The 2× PI4KB (PI4K beta)/PI Lipid Kinase Substrate mixture was prepared in 50 mM HEPES pH 7.5, 0.1% CHAPS, 1 mM EGTA, 4 mM MgCl2. […] After a 60-minute development reaction incubation at room temperature, the fluorescence was read on plate reader and the data analyzed.
# [4] = test system: murine splenocytes stimulated with α-CD3 antibody; assay: Cytokine secretion after α-CD3 stimulation; type: cell-based, Balb/C mice; details: Mus musculus, Splenocyte, 24 h
# Method: The ability of test compounds to inhibit cytokine release by murine splenocytes after stimulation with α-CD3 antibody was also investigated.
# 2×10^6 splenocytes from Balb/C female mice, 8-10 weeks old in 220 μl of complete medium were stimulated with 0.1 μg of hamster anti mouse CD3ε antibody in presence of various concentrations of test compounds. After 24 h of incubation at 37° C., 5% CO2, supernatant were collected and cytokine titers were determined by flow cytometry according manufacturer protocols (MCB United States, Arlington, Mass., USA).
# The results are shown in FIG. 1 compared to a DMSO negative control (▾). […].
# [5] = test system: collagen-induced arthritis; assay: Collagen-induced arthritis model; type: in vivo, DBA1 male mice; details: 40 mg/kg/d oral gavage
# Method: The activity of test compound in an in vivo model, the collagen-induced arthritis model, was investigated. […] DBA1 male mice, 8-10 weeks old, were distributed in 2 groups according to the treatment. Twelve animals received daily treatment with vehicle (1% methylcellulose), twelve others received compound (3) at 40 mg/kg/d in 1% methylcellulose. The treatment initiation started the day before the intradermal injection at the base of the tail of 100 μg of emulsified chicken collagen II in presence of complete Freund adjuvant and added heat-killed Mycobacterium butyricum. Daily inspection of the mice was performed to weight animals and quantify disease score according to the following scale (score 0: normal; score 1: redness and/or swelling in one joint; score 2: redness and/or swelling in more than one joint; score 3: redness and/or swelling in the entire paw; score 4: deformity and/or ankylosis). On the day of sacrifice (day 42) serum were collected and anti-collagen II antibody titers were determined by ELISA. Joints were harvested, fixed in 6% paraformaldehyde, decalcified in formic acid 6% for 48 h, sliced and stained by hematoxylin and eosin staining. Hyperplasia of the synovium, infiltration of mono and polymorphonuclear cells and pannus formation parameters were scored blindly.
# [6] = test system: cardiac allograft rejection; assay: Cardiac allograft transplantation model, treatment day -1 to day 30 (Examples 7 and 8); type: in vivo, mice (C57BL/6 donor, Balb/c recipient); details: Example 8
# Method: Inbreed C57BL/6 H-2b and Balb/c H-2d female mice, 8-10 weeks old, 20-25 g, were used as donor and recipient, respectively. Heterotopic heart transplantation was performed by implanting the donor heart on the neck of recipients using conventional microsurgery techniques. Graft beating was checked daily by inspection and palpation. Cessation of beating indicated graft rejection, which was confirmed by histological examination. Housing and all experimental animal procedures were approved by the Institutional Animal Care and Research Advisory Committee of the KU Leuven.
# [7] = test system: cardiac allograft rejection; assay: Cardiac allograft transplantation and tolerance model, treatment day 0 to day 30 (Example 9)
# Text: The activity of test compound in a mouse model of cardiac allograft transplantation experiment was investigated. […] Animals with beating graft at day 60 were rechallenged with a second graft from the same strain donor or from a third party donor.
# To evaluate the operational tolerance phenotype, animals with functional graft at day 60 were challenged with a second graft from the same donor strain or from a third party. No treatment was applied.
# Inbreed C57BL/6 H-2^b and Balb/c H-2^d female mice, 8-10 weeks old, 20-25 g, were used as donor and recipient, respectively. Heterotopic heart transplantation was performed by implanting the donor heart on the neck of recipients using conventional microsurgery techniques. Graft beating was checked daily by inspection and palpation. Cessation of beating indicated graft rejection. The third party donor was C3H H-2^k female mice, 8-10 weeks old, 20-25 gr.
# Treatment started the day of transplantation (day 0) until day 30 post transplantation.
# [8] = RPMI-1788, 144 h, read-out: IC50 MLR, 6 days culture
# [9] = animals with functional graft at day 60, no treatment, n=2
# Chain of PI4KIIIβ (PI4KB, PI4K beta) (Q9UBF8 whole entry): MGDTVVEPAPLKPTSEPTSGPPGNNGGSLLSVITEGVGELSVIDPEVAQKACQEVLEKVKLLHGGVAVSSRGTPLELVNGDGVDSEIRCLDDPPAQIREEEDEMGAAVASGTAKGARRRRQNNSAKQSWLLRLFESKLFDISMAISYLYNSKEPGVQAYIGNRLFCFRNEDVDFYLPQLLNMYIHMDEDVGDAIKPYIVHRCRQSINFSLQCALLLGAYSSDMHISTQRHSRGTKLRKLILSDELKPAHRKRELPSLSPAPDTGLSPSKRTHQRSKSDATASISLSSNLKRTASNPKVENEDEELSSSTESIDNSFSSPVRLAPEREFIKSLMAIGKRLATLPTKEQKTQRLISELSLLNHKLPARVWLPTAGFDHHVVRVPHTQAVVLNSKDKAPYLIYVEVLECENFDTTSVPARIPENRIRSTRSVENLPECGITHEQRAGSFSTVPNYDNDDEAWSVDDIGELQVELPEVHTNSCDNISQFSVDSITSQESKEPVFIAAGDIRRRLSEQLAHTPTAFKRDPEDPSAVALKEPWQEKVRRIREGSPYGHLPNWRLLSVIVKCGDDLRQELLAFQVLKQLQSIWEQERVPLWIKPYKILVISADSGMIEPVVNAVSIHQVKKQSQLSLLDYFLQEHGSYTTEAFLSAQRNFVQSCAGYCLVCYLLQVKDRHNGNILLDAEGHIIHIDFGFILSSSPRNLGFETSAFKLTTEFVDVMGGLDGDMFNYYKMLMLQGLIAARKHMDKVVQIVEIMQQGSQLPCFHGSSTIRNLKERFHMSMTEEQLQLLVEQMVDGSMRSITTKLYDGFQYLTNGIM
# T4 sequence (Q13153 whole entry): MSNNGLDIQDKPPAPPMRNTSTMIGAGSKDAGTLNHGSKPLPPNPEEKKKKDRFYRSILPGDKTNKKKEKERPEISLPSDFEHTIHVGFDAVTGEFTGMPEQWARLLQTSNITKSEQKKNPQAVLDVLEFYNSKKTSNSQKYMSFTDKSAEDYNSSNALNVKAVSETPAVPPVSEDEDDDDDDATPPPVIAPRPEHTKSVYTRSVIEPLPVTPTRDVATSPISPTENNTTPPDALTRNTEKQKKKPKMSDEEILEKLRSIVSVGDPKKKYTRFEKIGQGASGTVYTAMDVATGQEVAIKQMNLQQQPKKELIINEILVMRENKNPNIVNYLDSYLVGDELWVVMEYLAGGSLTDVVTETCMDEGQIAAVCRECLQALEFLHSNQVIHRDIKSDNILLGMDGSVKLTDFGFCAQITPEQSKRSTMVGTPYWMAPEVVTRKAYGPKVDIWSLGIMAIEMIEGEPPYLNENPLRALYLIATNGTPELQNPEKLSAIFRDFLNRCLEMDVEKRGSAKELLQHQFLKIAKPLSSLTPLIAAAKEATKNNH
# T2 sequence (O94804 whole entry): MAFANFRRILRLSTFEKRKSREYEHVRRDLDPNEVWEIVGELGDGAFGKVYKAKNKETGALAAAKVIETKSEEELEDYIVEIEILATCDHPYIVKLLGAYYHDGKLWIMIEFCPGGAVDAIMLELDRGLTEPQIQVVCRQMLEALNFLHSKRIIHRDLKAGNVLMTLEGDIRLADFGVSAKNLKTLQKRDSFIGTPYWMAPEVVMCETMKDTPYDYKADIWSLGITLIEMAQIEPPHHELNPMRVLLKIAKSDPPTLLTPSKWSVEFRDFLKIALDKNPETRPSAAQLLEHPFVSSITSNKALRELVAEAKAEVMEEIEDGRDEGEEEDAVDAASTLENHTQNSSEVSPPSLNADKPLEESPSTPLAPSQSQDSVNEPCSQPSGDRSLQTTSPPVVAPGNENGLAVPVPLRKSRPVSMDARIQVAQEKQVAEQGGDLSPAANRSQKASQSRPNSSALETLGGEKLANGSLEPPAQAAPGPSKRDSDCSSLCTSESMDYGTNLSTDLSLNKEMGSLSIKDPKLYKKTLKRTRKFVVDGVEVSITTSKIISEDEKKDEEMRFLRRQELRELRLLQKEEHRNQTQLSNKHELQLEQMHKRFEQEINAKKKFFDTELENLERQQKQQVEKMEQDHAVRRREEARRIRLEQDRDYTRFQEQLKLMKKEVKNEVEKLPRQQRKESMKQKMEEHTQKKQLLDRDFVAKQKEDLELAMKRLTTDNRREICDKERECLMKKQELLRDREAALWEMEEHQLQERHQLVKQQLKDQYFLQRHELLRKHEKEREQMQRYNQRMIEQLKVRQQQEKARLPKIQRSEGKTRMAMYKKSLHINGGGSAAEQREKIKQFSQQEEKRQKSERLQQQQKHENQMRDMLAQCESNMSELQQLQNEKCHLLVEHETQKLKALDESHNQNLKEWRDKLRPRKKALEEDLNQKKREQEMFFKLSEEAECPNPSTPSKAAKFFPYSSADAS
# T1 sequence (P42338 whole entry): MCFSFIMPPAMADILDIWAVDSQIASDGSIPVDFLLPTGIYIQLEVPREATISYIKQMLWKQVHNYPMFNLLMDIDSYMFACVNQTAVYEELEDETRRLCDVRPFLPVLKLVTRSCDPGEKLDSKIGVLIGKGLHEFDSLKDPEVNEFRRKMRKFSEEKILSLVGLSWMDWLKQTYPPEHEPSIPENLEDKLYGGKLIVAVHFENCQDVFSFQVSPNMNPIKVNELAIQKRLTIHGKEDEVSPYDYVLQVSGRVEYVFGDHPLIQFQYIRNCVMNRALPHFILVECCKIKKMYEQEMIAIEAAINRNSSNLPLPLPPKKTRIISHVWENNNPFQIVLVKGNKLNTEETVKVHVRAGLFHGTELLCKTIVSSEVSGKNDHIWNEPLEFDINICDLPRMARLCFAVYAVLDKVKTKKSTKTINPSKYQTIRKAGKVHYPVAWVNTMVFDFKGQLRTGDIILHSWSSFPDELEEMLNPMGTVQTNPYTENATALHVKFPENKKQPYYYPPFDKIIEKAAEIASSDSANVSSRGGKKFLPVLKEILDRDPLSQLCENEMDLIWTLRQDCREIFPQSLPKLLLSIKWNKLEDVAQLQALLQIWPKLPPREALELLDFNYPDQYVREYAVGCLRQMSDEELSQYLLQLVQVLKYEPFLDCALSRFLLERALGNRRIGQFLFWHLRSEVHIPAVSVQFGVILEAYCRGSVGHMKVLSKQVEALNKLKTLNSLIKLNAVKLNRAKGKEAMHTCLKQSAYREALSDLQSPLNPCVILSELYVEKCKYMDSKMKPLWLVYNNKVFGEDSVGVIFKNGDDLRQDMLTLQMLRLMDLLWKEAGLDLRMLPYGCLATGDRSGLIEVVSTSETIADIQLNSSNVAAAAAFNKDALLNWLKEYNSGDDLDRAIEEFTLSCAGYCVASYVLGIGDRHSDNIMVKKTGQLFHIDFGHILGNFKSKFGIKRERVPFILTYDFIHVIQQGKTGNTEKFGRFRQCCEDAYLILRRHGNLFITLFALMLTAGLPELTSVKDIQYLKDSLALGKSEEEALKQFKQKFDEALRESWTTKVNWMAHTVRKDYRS
# T1 sequence (P27986 whole entry partner): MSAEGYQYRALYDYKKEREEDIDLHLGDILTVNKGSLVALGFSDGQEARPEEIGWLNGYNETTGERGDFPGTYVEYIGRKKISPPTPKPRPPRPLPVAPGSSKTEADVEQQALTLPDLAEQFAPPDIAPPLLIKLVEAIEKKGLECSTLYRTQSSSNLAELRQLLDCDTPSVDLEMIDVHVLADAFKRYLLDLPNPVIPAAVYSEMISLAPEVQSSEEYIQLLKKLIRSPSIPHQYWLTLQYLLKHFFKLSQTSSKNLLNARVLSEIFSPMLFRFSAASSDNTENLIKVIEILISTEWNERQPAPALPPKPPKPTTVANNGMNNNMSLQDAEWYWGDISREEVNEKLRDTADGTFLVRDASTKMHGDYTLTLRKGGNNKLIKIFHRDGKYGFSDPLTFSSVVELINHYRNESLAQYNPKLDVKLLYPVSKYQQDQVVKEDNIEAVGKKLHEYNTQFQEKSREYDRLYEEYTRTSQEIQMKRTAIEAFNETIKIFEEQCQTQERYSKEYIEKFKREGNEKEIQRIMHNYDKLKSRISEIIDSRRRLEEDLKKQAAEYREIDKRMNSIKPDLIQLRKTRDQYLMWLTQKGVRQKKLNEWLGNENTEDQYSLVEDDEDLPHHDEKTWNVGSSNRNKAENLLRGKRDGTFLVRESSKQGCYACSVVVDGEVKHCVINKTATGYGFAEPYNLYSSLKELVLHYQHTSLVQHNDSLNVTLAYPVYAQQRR
compound,measurement,setting,value
"CC(=O)Nc1nc(C)c(-c2ccc(Cl)c(S(=O)(=O)NCCO)c2)s1 [PIK93, reference compound]",IC50,[1]; [8],401 nM
"COc1ccc(-c2c(C)nn3c(NCCN4CCOCC4)cc(C)nc23)cc1OC [T-00127-HEV1, reference compound]",IC50,"[1]; RPMI-1788, 144 h, read-out: IC50 MLR",842 nM
"Cc1cccc(NC(=O)N2CCN(c3nc(N)nc4sc(-c5cccnc5)nc34)CC2)c1 [formula (2), 4-[5-amino-2-(pyridin-3-yl)thiazolo[5,4-d]pyrimidin-7-yl]-N-m-tolylpiperazine-1-carboxamide]",Kinase activity,[2],82 percentage of control
same,Kinase activity,LOK (h),98 percentage of control
same,Kinase activity,YSK4 (h),79 percentage of control
same,Kinase activity,PAK1,108 percentage of control
same,Kinase activity,PI4KA (PI4K alpha),90 percentage of control
same,IC50,[3],14.3 nM
same,inhibition at 10 µM,[3],99.5%
Cc1ccc(NC(=O)N2CCN(c3nc(N)nc4sc(-c5cccnc5)nc34)CC2)cc1 [formula (3)],IC50,[4]; read-out: IC50 for inhibition of IFNγ release,< 1 nM
same,IC50,[4]; read-out: IC50 for inhibition of IL2 release,< 1 nM
same,"histological scores (hyperplasia, infiltration, pannus)",[5]; joints day 42,reduced
same,onset of arthritic symptoms,"[5]; preventive, vs vehicle",delay the onset of arthritic symptoms
same,symptom severity,"[5]; preventive, vs vehicle",decrease symptom severity
same,anti-CII IgG titre,[5]; serum day 42,reduced
same,Surviving days (cardiac graft),"[6]; 20 mg/kg/d daily gavage, individual animals, 20 mg/kg/day",up to 13 days
same,grafts continuously functioning after stopping the treatment on day 30,[6]; 40 mg/kg per day,3/4
same,grafts with continuous survival while treatment continued,[6]; 40 mg/kg per day,4/6
same,grafts with prolonged survival at day 30,"[7]; Example 9, each group (40, 50, 60 mg/kg/d)",3 out of 6
same,day of rejection of second graft from third party donor,[7]; [9],8 days
same,time second graft from same donor strain was functional,[7]; [9],more than 90 days
Nc1nc(N2CCN(C(=O)COc3ccc(F)cc3)CC2)c2nc(-c3cccnc3)sc2n1 [formula (4)],IC50,[3],21.8 nM
same,inhibition at 10 µM,[3],95%
same,IC50,[1]; [8],< 50 nM
same,IC50,"[1]; read-out: IC50 MLR, 6 days culture",25 nM
